Measurements taken from patent publication US20120172359A1 (NOVARTIS AG, priority 2010, published 2012).
Structures can show the parent of a compound that is named as a salt.

molecular target: Human BACE-1 (Homo sapiens, UniProt P56817); assay: Test 1: Inhibition of Human BACE-1; type: biochemical; settings: Test 1; recombinant BACE-1 (extracellular domain), acetate buffer pH 4.5, 1 hour with test compound at room temperature, fluorescence-quenched peptide substrate; read-out: Bace IC50
Sequence (P56817 46-457 limits assumed): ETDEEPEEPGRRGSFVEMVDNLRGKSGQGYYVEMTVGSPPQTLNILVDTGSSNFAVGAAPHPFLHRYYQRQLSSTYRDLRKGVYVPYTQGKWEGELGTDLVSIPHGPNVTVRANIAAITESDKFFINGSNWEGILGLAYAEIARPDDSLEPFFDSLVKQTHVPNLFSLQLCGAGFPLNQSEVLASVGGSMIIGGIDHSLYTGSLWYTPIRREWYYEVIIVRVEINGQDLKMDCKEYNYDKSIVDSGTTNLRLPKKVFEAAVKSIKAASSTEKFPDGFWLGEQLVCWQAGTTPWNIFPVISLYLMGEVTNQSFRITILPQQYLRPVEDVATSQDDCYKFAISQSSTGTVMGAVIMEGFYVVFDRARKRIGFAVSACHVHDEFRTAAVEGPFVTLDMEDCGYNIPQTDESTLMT

Question: For N#Cc1ccc(C(=O)Nc2cc(C3(C(F)F)COCC(N)=N3)c(F)cc2F)nc1 (stereo not shown) [Example 82, 5-Cyano-pyridine-2-carboxylic acid [5-(5-amino-3-difluoromethyl-3,6-dihydro-2H-[1,4]oxazin-3-yl)-2,4-difluoro-phenyl]-amide hydrochloride], which IC50 is on record?
Answer: 3000 nM

Question: COc1cc(Br)cnc1C(=O)Nc1cc(C2(C(F)F)COCC(N)=N2)c(F)cc1F (stereo not shown) [Example 83, 5-Bromo-3-methoxy-pyridine-2-carboxylic acid [5-(5-amino-3-difluoromethyl-3,6-dihydro-2H-[1,4]oxazin-3-yl)-2,4-difluoro-phenyl]-amide hydrochloride] was tested. Which IC50 did it give?
Answer: 2900 nM

Question: NC1=NC(c2cc(NC(=O)c3ncc(Br)cc3O)c(F)cc2F)(C(F)F)COC1 (stereo not shown) [Example 84, 5-Bromo-3-hydroxy-pyridine-2-carboxylic acid [5-(5-amino-3-difluoromethyl-3,6-dihydro-2H-[1,4]oxazin-3-yl)-2,4-difluoro-phenyl]-amide hydrochloride] was tested. Which IC50 did it give?
Answer: 930 nM

Question: How did the IC50 turn out when NC1=N[C@](CF)(c2cc(NC(=O)c3ccc(Cl)cn3)ccc2F)COC1 [Example 85, 5-Chloro-pyridine-2-carboxylic acid [3-((R)-5-amino-3-fluoromethyl-3,6-dihydro-2H-[1,4]oxazin-3-yl)-4-fluoro-phenyl]-amide hydrochloride] was run?
Answer: 26 nM

Question: For NC1=NC(CF)(c2cc(NC(=O)c3ccc(Br)cn3)ccc2F)COC1 (stereo not shown) [Example 86, 5-Bromo-pyridine-2-carboxylic acid [3-(5-amino-3-fluoromethyl-3,6-dihydro-2H-[1,4]oxazin-3-yl)-4-fluoro-phenyl]-amide hydrochloride], which IC50 is on record?
Answer: 44 nM

Question: Which IC50 does the source give for NC1=NC(CF)(c2cc(NC(=O)c3ccc(Cl)cn3)ccc2F)COC1 (stereo not shown) [Example 87, 5-Chloro-pyridine-2-carboxylic acid [3-(5-amino-3-fluoromethyl-3,6-dihydro-2H-[1,4]oxazin-3-yl)-4-fluoro-phenyl]-amide hydrochloride] here?
Answer: 57 nM

Question: Which IC50 does the source give for NC1=NC(CF)(c2cc(NC(=O)c3ncc(Cl)cc3Cl)ccc2F)COC1 (stereo not shown) [Example 88, 3,5-Dichloro-pyridine-2-carboxylic acid [3-(5-amino-3-fluoromethyl-3,6-dihydro-2H-[1,4]oxazin-3-yl)-4-fluoro-phenyl]-amide hydrochloride] here?
Answer: 33 nM

Question: For N#Cc1ccc(C(=O)Nc2ccc(F)c(C3(CF)COCC(N)=N3)c2)nc1 (stereo not shown) [Example 89, 5-Cyano-pyridine-2-carboxylic acid [3-(5-amino-3-fluoromethyl-3,6-dihydro-2H-[1,4]oxazin-3-yl)-4-fluoro-phenyl]-amide hydrochloride], which IC50 is on record?
Answer: 94 nM

Question: Which IC50 does the source give for Cc1cc(Br)cnc1C(=O)Nc1ccc(F)c(C2(CF)COCC(N)=N2)c1 (stereo not shown) [Example 90, 5-Bromo-3-methyl-pyridine-2-carboxylic acid [3-(5-amino-3-fluoromethyl-3,6-dihydro-2H-[1,4]oxazin-3-yl)-4-fluoro-phenyl]-amide hydrochloride] here?
Answer: 39 nM

Question: Which IC50 does the source give for Cc1cc(Br)cnc1C(=O)Nc1ccc(F)c([C@]2(CF)COCC(N)=N2)c1 [Example 91, 5-Bromo-3-methyl-pyridine-2-carboxylic acid [3-((R)-5-amino-3-fluoromethyl-3,6-dihydro-2H-[1,4]oxazin-3-yl)-4-fluoro-phenyl]-amide hydrochloride] here?
Answer: 15 nM

Question: Which IC50 does the source give for Cc1cc(Cl)cnc1C(=O)Nc1ccc(F)c([C@]2(CF)COCC(N)=N2)c1 [Example 92, 5-Chloro-3-methyl-pyridine-2-carboxylic acid [3-((R)-5-amino-3-fluoromethyl-3,6-dihydro-2H-[1,4]oxazin-3-yl)-4-fluoro-phenyl]-amide] here?
Answer: 5 nM

Question: How did the IC50 turn out when Cl.[2H]c1nc(C(=O)Nc2ccc(F)c([C@]3(CF)COCC(N)=N3)c2)c(C([2H])([2H])[2H])c([2H])c1Cl [Example 93, 5-Chloro-4,6-dideutero-3-trideuteromethyl-pyridine-2-carboxylic acid [3-((R)-5-amino-3-fluoromethyl-3,6-dihydro-2H-[1,4]oxazin-3-yl)-4-fluoro-phenyl]-amide hydrochloride] was run?
Answer: 8 nM

Question: With NC1=N[C@](CF)(c2cc(NC(=O)c3ncc(Br)cc3O)ccc2F)COC1 [Example 94, 5-Bromo-3-hydroxy-pyridine-2-carboxylic acid [3-((R)-5-amino-3-fluoromethyl-3,6-dihydro-2H-[1,4]oxazin-3-yl)-4-fluoro-phenyl]-amide hydrochloride] as the molecule, how does the IC50 read?
Answer: 22 nM

Question: With COc1cc(Br)cnc1C(=O)Nc1ccc(F)c([C@]2(CF)COCC(N)=N2)c1 [Example 95, 5-Bromo-3-methoxy-pyridine-2-carboxylic acid [3-((R)-5-amino-3-fluoromethyl-3,6-dihydro-2H-[1,4]oxazin-3-yl)-4-fluoro-phenyl]-amide] as the molecule, how does the IC50 read?
Answer: 390 nM

Question: NC1=N[C@@](c2cc(NC(=O)c3ccc(Br)cn3)ccc2F)(C(F)F)CCOC1 [Example 97, 5-Bromo-pyridine-2-carboxylic acid[3-((S)-3-amino-5-difluoromethyl-2,5,6,7-tetrahydro-[1,4]oxazepin-5-yl)-4-fluoro-phenyl]-amide hydrochloride] was tested. Which IC50 did it give?
Answer: 18 nM

Question: N#Cc1ccc(C(=O)Nc2ccc(F)c(C3(C(F)(F)F)CCOCC(N)=N3)c2)nc1 (stereo not shown) [Example 98, 5-Cyano-pyridine-2-carboxylic acid [3-(3-amino-5-trifluoromethyl-2,5,6,7-tetrahydro-[1,4]oxazepin-5-yl)-4-fluoro-phenyl]-amide hydrochloride] was tested. Which IC50 did it give?
Answer: 240 nM

Question: Which IC50 does the source give for CC1(c2cc(NC(=O)c3ccc(Br)cn3)ccc2F)N=C(N)COCC1(F)F (stereo not shown) [Example 101, 5-Bromo-pyridine-2-carboxylic acid [3-(3-amino-6,6-difluoro-5-methyl-2,5,6,7-tetrahydro-[1,4]oxazepin-5-yl)-4-fluoro-phenyl]-amide] here?
Answer: 30 nM

Question: NC1=NC(c2cccc(NC(=O)c3cc(Br)co3)c2)(C(F)F)COC1 (stereo not shown) [Example 102, 4-Bromo-furan-2-carboxylic acid [3-(5-amino-3-difluoromethyl-3,6-dihydro-2H-[1,4]oxazin-3-yl)-phenyl]-amide hydrochloride] was tested. Which IC50 did it give?
Answer: 890 nM

Question: For NC1=NC(c2cccc(NC(=O)c3ccc(O)nn3)c2)(C(F)F)COC1 (stereo not shown) [Example 103, 6-Hydroxy-pyridazine-3-carboxylic acid [3-(5-amino-3-difluoromethyl-3,6-dihydro-2H-[1,4]oxazin-3-yl)-phenyl]-amide hydrochloride], which IC50 is on record?
Answer: 7800 nM

Question: For CCc1nc(C(=O)Nc2cccc(C3(C(F)F)COCC(N)=N3)c2)co1 (stereo not shown) [Example 105, 2-Ethyl-oxazole-4-carboxylic acid [3-(5-amino-3-difluoromethyl-3,6-dihydro-2H-[1,4]oxazin-3-yl)-phenyl]-amide hydrochloride], which IC50 is on record?
Answer: 5200 nM

Question: How did the IC50 turn out when Cc1nc(C(=O)Nc2cccc(C3(C(F)F)COCC(N)=N3)c2)c(C)o1 (stereo not shown) [Example 106, 2,5-Dimethyl-oxazole-4-carboxylic acid [3-(5-amino-3-difluoromethyl-3,6-dihydro-2H-[1,4]oxazin-3-yl)-phenyl]-amide hydrochloride] was run?
Answer: 4000 nM

Question: For COc1cc(Br)cnc1C(=O)Nc1cccc(C2(C(F)F)COCC(N)=N2)c1 (stereo not shown) [Example 107, 5-Bromo-3-methoxy-pyridine-2-carboxylic acid [3-(5-amino-3-difluoromethyl-3,6-dihydro-2H-[1,4]oxazin-3-yl)-phenyl]-amide hydrochloride], which IC50 is on record?
Answer: 820 nM

Question: Which IC50 does the source give for NC1=NC(c2cccc(NC(=O)c3ncc(Br)cc3O)c2)(C(F)F)COC1 (stereo not shown) [Example 108, 5-Bromo-3-hydroxy-pyridine-2-carboxylic acid [3-(5-amino-3-difluoromethyl-3,6-dihydro-2H-[1,4]oxazin-3-yl)-phenyl]-amide hydrochloride] here?
Answer: 28 nM

Question: Which IC50 does the source give for COCCOc1cnc(C(=O)Nc2cccc(C3(C(F)F)COCC(N)=N3)c2)cn1 (stereo not shown) [Example 109, hydrochloride] here?
Answer: 1200 nM

Question: NC1=NC(c2cccc(NC(=O)c3cnc(C(F)F)cn3)c2)(C(F)F)COC1 (stereo not shown) [Example 110, 5-Difluoromethyl-pyrazine-2-carboxylic acid [3-(5-amino-3-difluoromethyl-3,6-dihydro-2H-[1,4]oxazin-3-yl)-phenyl]-amide hydrochloride] was tested. Which IC50 did it give?
Answer: 1900 nM

Question: NC1=N[C@@](c2cc(NC(=O)c3ncc(Cl)cc3Cl)ccc2F)(C(F)F)COC1 [Example 111, 3,5-Dichloro-pyridine-2-carboxylic acid [3-((R)-5-amino-3-difluoromethyl-3,6-dihydro-2H-[1,4]oxazin-3-yl)-4-fluoro-phenyl]-amide hydrochloride] was tested. Which IC50 did it give?
Answer: 25 nM

Question: How did the IC50 turn out when NC1=N[C@@](c2cc(NC(=O)c3ncc(F)cc3F)ccc2F)(C(F)F)COC1 [Example 113, 3,5-Difluoro-pyridine-2-carboxylic acid [3-((R)-5-amino-3-difluoromethyl-3,6-dihydro-2H-[1,4]oxazin-3-yl)-4-fluoro-phenyl]-amide hydrochloride] was run?
Answer: 120 nM

Question: How did the IC50 turn out when Cc1c(C(=O)Nc2ccc(F)c([C@]3(C(F)F)COCC(N)=N3)c2)oc2ccc(Br)cc12 [Example 114, 5-Bromo-3-methyl-benzofuran-2-carboxylic acid [3-((R)-5-amino-3-difluoromethyl-3,6-dihydro-2H-[1,4]oxazin-3-yl)-4-fluoro-phenyl]-amide hydrochloride] was run?
Answer: 6 nM

Question: How did the IC50 turn out when Cl.[2H]c1nc(C(=O)Nc2ccc(F)c([C@]3(C(F)F)COCC(N)=N3)c2)c(C([2H])([2H])[2H])c([2H])c1Cl [Example 115, 5-Chloro-4,6-dideutero-3-trideuteromethyl-pyridine-2-carboxylic acid [3-((R)-5-amino-3-difluoromethyl-3,6-dihydro-2H-[1,4]oxazin-3-yl)-4-fluoro-phenyl]-amide hydrochloride] was run?
Answer: 6 nM

Question: Which IC50 does the source give for NC1=N[C@@](c2cc(NC(=O)c3ncc(Br)cc3Cl)ccc2F)(C(F)F)COC1 [Example 117, 5-Bromo-3-chloro-pyridine-2-carboxylic acid [3-((R)-5-amino-3-difluoromethyl-3,6-dihydro-2H-[1,4]oxazin-3-yl)-4-fluoro-phenyl]-amide hydrochloride] here?
Answer: 18 nM

Question: Which IC50 does the source give for NC1=N[C@@](c2cc(NC(=O)c3ccc(Br)cn3)ccc2F)(C(F)F)COC1 [Example 118, 5-Bromo-pyridine-2-carboxylic acid [3-((R)-5-amino-3-difluoromethyl-3,6-dihydro-2H-[1,4]oxazin-3-yl)-4-fluoro-phenyl]-amide hydrochloride] here?
Answer: 14 nM
